Measured values published in patent publication US4468511A, “C-20- And C-23-Modified macrolide derivatives” (Eli Lilly and Company, priority 1983, dated 1984).
In brackets after ≈: the same amount, converted by molar mass. Read-outs that look alike come from different tables or passages of the source.

Assays:
[1] = system: Pasteurella multocida; experiment: Pasteurella infection in one-day old chicks; format: in vivo; settings: subcutaneous, 30 mg/kg × 2, 1 and 4 hours post-challenge
Procedure: Certain of the formula 1 compounds of this invention have also shown in vivo activity against infections induced by gram-negative bacteria. Table V summarizes the results of tests in which illustrative compounds were evaluated against a Pasteurella infection in one-day old chicks. The compounds were administered parenterally after challenge of the chicks with Pasteurella multocida (0.1 ml of a 10^-4 dilution of a twenty-hour tryptose broth culture of an avian P. multocida given subcutaneously). In these tests, unless indicated otherwise, all non-medicated infected chicks died within 24 hours of Pasteurella challenge. In the tests summarized in Table V, the compounds were administered by subcutaneous injection at a dosage of 30 mg/kg, 1 and 4 hours post-challenge of the chicks with P. multocida.

[2] = system: Pasteurella multocida 60A; experiment: MIC, conventional broth-dilution microtiter test; format: cell-based; settings: Pasteurella multocida, 60A
Summary of the method: (§1)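 The Klebsiella MIC was obtained by agar-dilution assay. Other organisms (Pasteurella hemolytica, Pasteurella multocida, Mycoplasma gallisepticum) were tested by conventional broth microdilution.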

[3] = system: Mycoplasma hyorhinis; experiment: MIC, conventional broth-dilution microtiter test; format: cell-based; settings: broth-dilution microtiter; Mycoplasma hyorhinis; read-out: MIC
Summary of the method: (§2)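 Two formats were used. Broth dilution in microtiter plates served for Pasteurella and Mycoplasma, while agar dilution served for Klebsiella.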

[4] = system: Pasteurella multocida 17E; experiment: MIC, conventional broth-dilution microtiter test; format: cell-based
Summary of the method: as §1

[5] = system: Mycoplasma gallisepticum; experiment: MIC, conventional broth-dilution microtiter test; format: cell-based; settings: Mycoplasmoides gallisepticum
Summary of the method: as §1

[6] = system: Staphylococcus aureus; experiment: MIC, conventional broth-dilution microtiter test; format: cell-based
Procedure: (§3) Certain of the derivatives are active against some gram-negative bacteria, such as Pasteurella species. The MIC's in Table II were determined by standard agar-dilution assays. The MIC's in Table III were obtained using a conventional broth-dilution microtiter test.

[7] = system: Mycoplasma gallisepticum 34159; experiment: MIC, conventional broth-dilution microtiter test; format: cell-based; settings: Mycoplasmoides gallisepticum; broth-dilution microtiter; Mycoplasma gallisepticum 34159, Resistant strain; read-out: MIC
Summary of the method: as §1

[8] = system: Streptococcus sp. 80; experiment: MIC, conventional broth-dilution microtiter test; format: cell-based
Procedure: as §3

[9] = system: Mycoplasma synoviae; experiment: MIC, conventional broth-dilution microtiter test; format: cell-based; settings: Mycoplasmopsis synoviae
Summary of the method: as §2

[10] = system: Pasteurella multocida 22A; experiment: MIC, conventional broth-dilution microtiter test; format: cell-based; settings: Pasteurella multocida, 22A
Summary of the method: as §1

[11] = system: Pasteurella hemolytica 22C; experiment: MIC, conventional broth-dilution microtiter test; format: cell-based
Summary of the method: as §1

[12] = system: Mycoplasma gallisepticum 41313; experiment: MIC, conventional broth-dilution microtiter test; format: cell-based; settings: Mycoplasmoides gallisepticum; broth-dilution microtiter; Mycoplasma gallisepticum 41313, Resistant strain; read-out: MIC
Summary of the method: as §1

[13] = system: Pasteurella multocida 40G; experiment: MIC, conventional broth-dilution microtiter test; format: cell-based; settings: Pasteurella multocida, 40G
Summary of the method: as §1

[14] = system: Pasteurella hemolytica 23C; experiment: MIC, conventional broth-dilution microtiter test; format: cell-based
Summary of the method: as §1

[15] = system: Pasteurella multocida 68C; experiment: MIC, conventional broth-dilution microtiter test; format: cell-based; settings: Pasteurella multocida, 68C
Summary of the method: as §1

[16] = system: Pasteurella hemolytica 41D; experiment: MIC, conventional broth-dilution microtiter test; format: cell-based
Summary of the method: as §1

[17] = system: Haemophilus influenzae 76; experiment: MIC, standard agar-dilution assay; format: cell-based; settings: Haemophilus influenzae, 76
Procedure: (§4) The MIC's in Table II were determined by standard agar-dilution assays. The MIC's in Table III were obtained using a conventional broth-dilution microtiter test.

[18] = system: Staphylococcus aureus X400; experiment: MIC, standard agar-dilution assay; format: cell-based
Procedure: as §4

[19] = system: Staphylococcus epidermidis EPI2; experiment: MIC, standard agar-dilution assay; format: cell-based
Procedure: as §4

[20] = system: Haemophilus influenzae C.L.; experiment: MIC, standard agar-dilution assay; format: cell-based; settings: agar-dilution; Haemophilus influenzae C.L., Ampicillin-sensitive strain; read-out: MIC
Procedure: as §4

[21] = system: Streptococcus pyogenes C203; experiment: Protection of mice experimentally infected with S. pyogenes C203; format: in vivo
Procedure: Some of the derivatives of this invention have shown in vivo antimicrobial activity against experimentally-induced infections in laboratory animals. When two doses of test compound were administered to mice experimentally infected with S. pyogenes C203, the activity observed was measured as an ED50 value [effective dose in mg/kg to protect 50% of the test animals: see Warren Wick, et al., J. Bacteriol. 81, 233-235 (1961)].

[22] = system: Staphylococcus epidermidis EPI1; experiment: microbe, parasite or virus in culture; format: cell-based; settings: Staphylococcus epidermidis, EPI1
Procedure: as §4

[23] = system: Staphylococcus aureus S13E; experiment: microbe, parasite or virus in culture; format: cell-based
Procedure: as §4

[24] = system: Escherichia coli EC14; experiment: MIC, standard agar-dilution assay; format: cell-based; settings: agar-dilution; Escherichia coli EC14; read-out: MIC
Procedure: as §3

[25] = system: Staphylococcus aureus X1.1; experiment: MIC, standard agar-dilution assay; format: cell-based; settings: Staphylococcus aureus, X1.1
Summary of the method: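 A standard agar-dilution assay was used to test compounds against the Staphylococcus aureus isolate X1.1. Bacterial growth on agar with different compound concentrations was assessed, and the minimum inhibitory concentration was recorded in ug/mL.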

[26] = system: Streptococcus pyogenes C203; experiment: MIC, standard agar-dilution assay; format: cell-based; settings: agar-dilution; Streptococcus pyogenes C203; read-out: MIC
Procedure: as §3

[27] = system: Streptococcus pyogenes 9960; experiment: MIC, standard agar-dilution assay; format: cell-based; settings: agar-dilution, Streptococcus 9960, read-out: MIC
Procedure: as §3

[28] = system: Streptococcus Group D X66; experiment: MIC, standard agar-dilution assay; format: cell-based
Procedure: as §3

[29] = system: Klebsiella pneumoniae KAE; experiment: MIC, standard agar-dilution assay; format: cell-based; settings: agar-dilution; Klebsiella pneumoniae KAE; read-out: MIC
Summary of the method: as §1

[30] = system: Streptococcus pneumoniae Park I; experiment: MIC, standard agar-dilution assay; format: cell-based
Procedure: as §3

[31] = system: Escherichia coli TEM; experiment: MIC, standard agar-dilution assay; format: cell-based
Summary of the method: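 Antibacterial activity toward the gram-negative organism Escherichia coli was assessed by conventional agar dilution. The MIC, reported in ug/mL, is the minimum compound concentration on agar that prevents growth.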

[32] = system: Staphylococcus aureus V41; experiment: MIC, standard agar-dilution assay; format: cell-based
Procedure: as §3

[33] = system: Klebsiella pneumoniae X26; experiment: MIC, standard agar-dilution assay; format: cell-based; settings: agar-dilution; Klebsiella pneumoniae X26; read-out: MIC
Summary of the method: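 Method depends on organism. Klebsiella pneumoniae was assayed on agar. Pasteurella spp. and Mycoplasma gallisepticum were assayed in broth microtiter dilution.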

[34] = C203, sc, mice, subcutaneous, mg/kg × 2, doses given 1 and 4 hours postinfection, read-out: ED50 Subcutaneous

Compound	Number of Deaths/Number Treated [1]	MIC [2]	MIC [3]	MIC [7]	MIC [10]	MIC [12]	MIC [13]	MIC [15]	MIC [17]	MIC [20]	ED50 ([21]; C203, po, read-out: ED50 Oral)	ED50 [21, 34]	MIC [22]	MIC [23]	MIC [24]	MIC [25]	MIC [26]	MIC [27]	MIC [28]	MIC [29]	further results
CCC1CC(C)C(=O)C=CC(C)=CC(CN2CCCCCCC2)C(CC)OC(=O)CC(O)C(C)C1OC1OC(C)C(O)C(N(C)C)C1O (centres unmarked) [Compound 43, 23-Octahydroazocin-1-yl-20,23-dideoxy-20-dihydro-OMT]	8/10	0.78 µg/mL (≈ 1.15 µM)	50 µg/mL (≈ 73.6 µM)	> 50 µg/mL	1.56 µg/mL (≈ 2.3 µM)	> 50 µg/mL	1.56 µg/mL (≈ 2.3 µM)	1.56 µg/mL (≈ 2.3 µM)	8 µg/mL (≈ 11.8 µM)	4 µg/mL (≈ 5.89 µM)	> 100 mg/kg	> 12.5 mg/kg	0.5 µg/mL (≈ 0.736 µM)	0.5 µg/mL (≈ 0.736 µM)	> 128 µg/mL	0.5 µg/mL (≈ 0.736 µM)	0.12 µg/mL (≈ 0.177 µM)	2 µg/mL (≈ 2.95 µM)	1 µg/mL (≈ 1.47 µM)	> 128 µg/mL	MIC ([4]; Pasteurella multocida, 17E): 0.78 µg/mL (≈ 1.15 µM); MIC [5]: 0.78 µg/mL (≈ 1.15 µM); MIC ([6]; broth-dilution microtiter, read-out: MIC): 0.39 µg/mL (≈ 0.574 µM); MIC ([8]; Streptococcus, SP.80): 0.78 µg/mL (≈ 1.15 µM); MIC ([9]; broth-dilution microtiter, Mycoplasma synoviae, read-out: MIC): > 50 µg/mL; MIC ([11]; Pasteurella, 22C): 0.78 µg/mL (≈ 1.15 µM); MIC ([14]; Pasteurella, 23C): 1.56 µg/mL (≈ 2.3 µM); MIC ([16]; Pasteurella, 41D): 1.56 µg/mL (≈ 2.3 µM); MIC ([18]; Staphylococcus aureus, X400): 1 µg/mL (≈ 1.47 µM); MIC ([19]; Staphylococcus epidermidis, EPI2): 0.25 µg/mL (≈ 0.368 µM); MIC ([30]; Streptococcus pneumoniae): 1 µg/mL (≈ 1.47 µM); MIC ([31]; Escherichia coli): 16 µg/mL (≈ 23.6 µM); MIC ([32]; Staphylococcus aureus, V41): 0.5 µg/mL (≈ 0.736 µM); MIC [33]: 4 µg/mL (≈ 5.89 µM)
CCC1CC(C)C(=O)C=CC(C)=CC(CN2CCC(O)CC2)C(CC)OC(=O)CC(O)C(C)C1OC1OC(C)C(O)C(N(C)C)C1O (centres unmarked) [Compound 45, 23-(4-Hydroxypiperidino)-20,23-dideoxy-20-dihydro-OMT]	10/10	12.5 µg/mL (≈ 18.7 µM)	> 50 µg/mL	> 50 µg/mL	12.5 µg/mL (≈ 18.7 µM)	50 µg/mL (≈ 75 µM)	12.5 µg/mL (≈ 18.7 µM)	12.5 µg/mL (≈ 18.7 µM)	64 µg/mL (≈ 96 µM)	32 µg/mL (≈ 48 µM)	> 100 mg/kg	> 10 mg/kg	8 µg/mL (≈ 12 µM)	8 µg/mL (≈ 12 µM)	> 128 µg/mL	8 µg/mL (≈ 12 µM)	32 µg/mL (≈ 48 µM)	128 µg/mL (≈ 192 µM)	64 µg/mL (≈ 96 µM)	> 128 µg/mL	MIC ([4]; broth-dilution microtiter, Pasteurella multocida 17E, Bovine isolate, read-out: MIC): 25 µg/mL (≈ 37.5 µM); MIC ([5]; broth-dilution microtiter, Mycoplasma gallisepticum, read-out: MIC): 6.25 µg/mL (≈ 9.37 µM); MIC [6]: 12.5 µg/mL (≈ 18.7 µM); MIC ([8]; broth-dilution microtiter, Streptococcus sp. 80, read-out: MIC): 1.56 µg/mL (≈ 2.34 µM); MIC [9]: 12.5 µg/mL (≈ 18.7 µM); MIC ([11]; broth-dilution microtiter, Pasteurella hemolytica 22C, read-out: MIC): 25 µg/mL (≈ 37.5 µM); MIC ([14]; broth-dilution microtiter, Pasteurella hemolytica 23C, read-out: MIC): 25 µg/mL (≈ 37.5 µM); MIC ([16]; broth-dilution microtiter, Pasteurella hemolytica 41D, read-out: MIC): 25 µg/mL (≈ 37.5 µM); MIC ([18]; agar-dilution, Staphylococcus aureus X400, Methicillin-resistant strain, read-out: MIC): 32 µg/mL (≈ 48 µM); MIC ([19]; agar-dilution, Staphylococcus epidermidis EPI2, read-out: MIC): 2 µg/mL (≈ 3 µM); MIC ([30]; agar-dilution, Streptococcus pneumoniae Park I, read-out: MIC): 2 µg/mL (≈ 3 µM); MIC ([31]; agar-dilution, Escherichia coli TEM, read-out: MIC): > 128 µg/mL; MIC ([32]; agar-dilution, Staphylococcus aureus V41, Penicillin-resistant strain, read-out: MIC): 16 µg/mL (≈ 24 µM); MIC [33]: 16 µg/mL (≈ 24 µM)
